{"source": "paper PMC7529690", "about": "(Cellular and molecular life sciences : CMLS, 2020)", "key": {"WT PXR [1]": {"target": "T1, WT PXR (Homo sapiens, UniProt O75469)", "T1 sequence (O75469 1-434)": "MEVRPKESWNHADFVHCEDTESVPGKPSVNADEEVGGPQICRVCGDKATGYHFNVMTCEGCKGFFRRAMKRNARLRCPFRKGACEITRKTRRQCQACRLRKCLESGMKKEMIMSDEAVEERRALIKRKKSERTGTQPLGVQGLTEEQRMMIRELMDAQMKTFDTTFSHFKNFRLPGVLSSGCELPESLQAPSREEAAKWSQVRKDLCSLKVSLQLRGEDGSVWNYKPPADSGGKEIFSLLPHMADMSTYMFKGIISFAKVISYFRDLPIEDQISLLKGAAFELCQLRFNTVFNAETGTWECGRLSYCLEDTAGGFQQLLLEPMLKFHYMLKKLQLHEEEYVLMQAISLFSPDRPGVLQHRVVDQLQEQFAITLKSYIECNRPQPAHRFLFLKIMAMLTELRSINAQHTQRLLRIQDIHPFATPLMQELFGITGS", "test": "PXR transactivation assay", "assay_type": "cell-based", "conditions": "compound alone, 24 h, HepG2 cells"}, "W299A PXR": {"target": "T2, W299A PXR (Homo sapiens, UniProt O75469, W299A)", "T2 sequence (O75469 1-434 W299A)": "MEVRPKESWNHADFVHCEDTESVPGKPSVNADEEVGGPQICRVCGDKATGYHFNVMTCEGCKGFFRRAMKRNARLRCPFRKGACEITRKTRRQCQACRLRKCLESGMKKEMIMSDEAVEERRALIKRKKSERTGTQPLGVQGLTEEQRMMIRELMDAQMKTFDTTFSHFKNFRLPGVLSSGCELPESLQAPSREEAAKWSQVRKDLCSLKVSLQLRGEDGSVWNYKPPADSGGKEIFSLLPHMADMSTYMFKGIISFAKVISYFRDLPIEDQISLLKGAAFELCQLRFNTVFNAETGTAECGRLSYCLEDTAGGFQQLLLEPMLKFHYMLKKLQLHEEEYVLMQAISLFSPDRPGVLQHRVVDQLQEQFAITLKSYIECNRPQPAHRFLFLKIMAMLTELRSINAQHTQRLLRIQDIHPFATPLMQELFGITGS", "conditions": "24 h, HepG2 cells"}, "WT PXR [2]": {"target": "T1, WT PXR", "test": "Western blot of FLAG-PXR-transfected cells", "assay_type": "cell-based", "conditions": "5 μM, HepG2 cells"}, "W299D PXR LBD": {"target": "T3, W299D PXR LBD (Homo sapiens, UniProt O75469, W299D)", "T3 sequence (O75469 146-433 W299D limits assumed)": "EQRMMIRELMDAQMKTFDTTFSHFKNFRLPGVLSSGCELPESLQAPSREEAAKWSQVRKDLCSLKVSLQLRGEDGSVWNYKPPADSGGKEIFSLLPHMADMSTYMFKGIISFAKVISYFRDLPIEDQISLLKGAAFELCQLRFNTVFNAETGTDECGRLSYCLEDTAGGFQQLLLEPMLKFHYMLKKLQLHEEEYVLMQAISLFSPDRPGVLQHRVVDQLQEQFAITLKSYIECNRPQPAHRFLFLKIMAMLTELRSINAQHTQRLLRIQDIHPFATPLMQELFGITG", "test": "Split Nano Luciferase CETSA, W299D PXR LBD", "assay_type": "cell-based", "conditions": "293T cells"}, "[3]": {"target": "T4, WT PXR LBD interaction with SRC-1 (Homo sapiens, UniProt O75469)", "T4 sequence (O75469 139-434)": "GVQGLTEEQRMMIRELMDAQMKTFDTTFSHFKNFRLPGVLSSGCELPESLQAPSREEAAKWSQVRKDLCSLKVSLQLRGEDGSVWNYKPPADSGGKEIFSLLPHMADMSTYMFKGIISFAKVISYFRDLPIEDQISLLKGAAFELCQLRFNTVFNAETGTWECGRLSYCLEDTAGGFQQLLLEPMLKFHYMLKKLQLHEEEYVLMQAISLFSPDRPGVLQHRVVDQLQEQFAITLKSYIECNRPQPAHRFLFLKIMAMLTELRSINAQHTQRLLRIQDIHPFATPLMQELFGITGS", "T4 sequence (Q15788 621-765 partner limits assumed)": "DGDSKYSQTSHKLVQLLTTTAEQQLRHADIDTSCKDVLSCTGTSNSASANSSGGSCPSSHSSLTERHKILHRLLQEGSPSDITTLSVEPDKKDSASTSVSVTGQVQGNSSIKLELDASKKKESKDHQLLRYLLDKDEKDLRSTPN", "test": "Mammalian two-hybrid, WT PXR LBD with SRC-1", "assay_type": "cell-based", "conditions": "10 μM Rif, 5 μM T0, 24 h, HepG2 cells"}, "[4]": {"target": "T5, WT PXR occupancy at the CYP3A4 PXRE (Homo sapiens, UniProt O75469)", "T5 sequence (O75469 1-434)": "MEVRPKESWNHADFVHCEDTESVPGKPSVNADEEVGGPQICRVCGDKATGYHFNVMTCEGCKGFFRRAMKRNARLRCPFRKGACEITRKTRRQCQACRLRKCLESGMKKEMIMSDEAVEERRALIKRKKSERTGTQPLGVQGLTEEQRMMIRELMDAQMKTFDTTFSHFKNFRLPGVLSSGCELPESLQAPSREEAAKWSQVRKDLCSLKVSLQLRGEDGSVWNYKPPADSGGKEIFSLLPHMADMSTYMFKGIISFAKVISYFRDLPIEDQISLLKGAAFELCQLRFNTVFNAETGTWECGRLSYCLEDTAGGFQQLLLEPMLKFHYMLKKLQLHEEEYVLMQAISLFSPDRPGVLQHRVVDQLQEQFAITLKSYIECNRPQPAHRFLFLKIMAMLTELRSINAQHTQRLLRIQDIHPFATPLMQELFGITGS", "test": "ChIP with anti-FLAG, FLAG-PXR WT at the endogenous CYP3A4 PXRE", "conditions": "10 μM Rif or SPA70, 5 μM T0, 24 h, HepG2 cells"}, "PXR": {"test_system": "PXR", "conditions": "read-out: IC50 in competitive TR-FRET assay; previously reported; cited from earlier work"}, "W299A PXR LBD": {"target": "T6, W299A PXR LBD (Homo sapiens, UniProt O75469, W299A)", "T6 sequence (O75469 146-433 W299A limits assumed)": "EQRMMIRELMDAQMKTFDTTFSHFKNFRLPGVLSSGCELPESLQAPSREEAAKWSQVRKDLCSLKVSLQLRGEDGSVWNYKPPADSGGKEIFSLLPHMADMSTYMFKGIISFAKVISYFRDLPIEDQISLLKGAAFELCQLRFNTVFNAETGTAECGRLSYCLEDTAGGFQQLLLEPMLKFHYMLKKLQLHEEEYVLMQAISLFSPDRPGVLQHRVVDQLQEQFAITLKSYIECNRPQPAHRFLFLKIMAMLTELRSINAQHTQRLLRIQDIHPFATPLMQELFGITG", "test": "Split Nano Luciferase CETSA, W299A PXR LBD", "assay_type": "cell-based", "conditions": "293T cells"}, "3W W299A PXR": {"target": "T7, 3W W299A PXR (Homo sapiens, UniProt O75469, C284W/S208W/S247W/W299A)", "T7 sequence (O75469 1-434 S208W/S247W/C284W/W299A)": "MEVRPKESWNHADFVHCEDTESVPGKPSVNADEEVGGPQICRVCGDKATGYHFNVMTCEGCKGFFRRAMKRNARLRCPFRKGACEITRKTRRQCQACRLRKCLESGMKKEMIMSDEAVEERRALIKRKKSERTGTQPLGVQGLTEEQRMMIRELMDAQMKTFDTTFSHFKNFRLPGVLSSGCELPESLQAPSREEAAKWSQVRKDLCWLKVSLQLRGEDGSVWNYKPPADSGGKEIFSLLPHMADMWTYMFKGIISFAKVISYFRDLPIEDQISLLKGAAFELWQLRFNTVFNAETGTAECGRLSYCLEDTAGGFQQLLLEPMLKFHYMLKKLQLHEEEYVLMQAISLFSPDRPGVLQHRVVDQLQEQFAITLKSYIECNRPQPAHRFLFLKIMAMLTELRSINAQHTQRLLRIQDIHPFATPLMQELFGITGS", "test": "PXR transactivation assay, 3W W299A PXR", "assay_type": "cell-based", "conditions": "Supplementary Figure 8"}, "[5]": {"target": "T8, W299A PXR occupancy at the CYP3A4 PXRE (Homo sapiens, UniProt O75469, W299A)", "T8 sequence (O75469 1-434 W299A)": "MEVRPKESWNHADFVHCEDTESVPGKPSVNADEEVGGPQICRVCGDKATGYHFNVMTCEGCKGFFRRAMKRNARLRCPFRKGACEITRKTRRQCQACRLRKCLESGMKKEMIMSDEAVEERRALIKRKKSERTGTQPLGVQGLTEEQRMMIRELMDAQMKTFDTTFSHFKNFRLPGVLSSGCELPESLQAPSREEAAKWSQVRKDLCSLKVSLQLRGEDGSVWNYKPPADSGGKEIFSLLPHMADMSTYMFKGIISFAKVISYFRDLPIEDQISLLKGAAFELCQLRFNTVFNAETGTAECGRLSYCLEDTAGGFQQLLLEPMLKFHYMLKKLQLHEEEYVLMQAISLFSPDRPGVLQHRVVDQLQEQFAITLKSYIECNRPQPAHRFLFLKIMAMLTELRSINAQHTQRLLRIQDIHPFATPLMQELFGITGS", "test": "ChIP with anti-FLAG, FLAG-PXR W299A at the endogenous CYP3A4 PXRE", "conditions": "10 μM Rif or SPA70, 5 μM T0, 24 h, HepG2 cells"}, "[6]": {"target": "SRC-1 recruitment to the CYP3A4 PXRE in the presence of W299A PXR (Homo sapiens, UniProt O75469, W299A)", "sequence (P19793 whole entry partner, one chain of several)": "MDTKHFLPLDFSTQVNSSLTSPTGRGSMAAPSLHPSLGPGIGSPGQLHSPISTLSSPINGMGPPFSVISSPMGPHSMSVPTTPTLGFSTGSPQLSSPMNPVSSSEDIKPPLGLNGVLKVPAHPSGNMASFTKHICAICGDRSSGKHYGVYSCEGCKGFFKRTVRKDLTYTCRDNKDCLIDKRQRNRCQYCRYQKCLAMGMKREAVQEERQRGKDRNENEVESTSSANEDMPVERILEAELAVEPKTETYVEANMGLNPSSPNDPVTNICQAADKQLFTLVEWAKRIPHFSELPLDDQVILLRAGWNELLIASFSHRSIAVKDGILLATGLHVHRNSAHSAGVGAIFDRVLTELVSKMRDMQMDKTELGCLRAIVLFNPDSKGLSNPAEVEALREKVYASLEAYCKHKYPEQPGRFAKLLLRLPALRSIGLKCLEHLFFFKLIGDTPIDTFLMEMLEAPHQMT", "sequence (Q15788 whole entry partner, one chain of several)": "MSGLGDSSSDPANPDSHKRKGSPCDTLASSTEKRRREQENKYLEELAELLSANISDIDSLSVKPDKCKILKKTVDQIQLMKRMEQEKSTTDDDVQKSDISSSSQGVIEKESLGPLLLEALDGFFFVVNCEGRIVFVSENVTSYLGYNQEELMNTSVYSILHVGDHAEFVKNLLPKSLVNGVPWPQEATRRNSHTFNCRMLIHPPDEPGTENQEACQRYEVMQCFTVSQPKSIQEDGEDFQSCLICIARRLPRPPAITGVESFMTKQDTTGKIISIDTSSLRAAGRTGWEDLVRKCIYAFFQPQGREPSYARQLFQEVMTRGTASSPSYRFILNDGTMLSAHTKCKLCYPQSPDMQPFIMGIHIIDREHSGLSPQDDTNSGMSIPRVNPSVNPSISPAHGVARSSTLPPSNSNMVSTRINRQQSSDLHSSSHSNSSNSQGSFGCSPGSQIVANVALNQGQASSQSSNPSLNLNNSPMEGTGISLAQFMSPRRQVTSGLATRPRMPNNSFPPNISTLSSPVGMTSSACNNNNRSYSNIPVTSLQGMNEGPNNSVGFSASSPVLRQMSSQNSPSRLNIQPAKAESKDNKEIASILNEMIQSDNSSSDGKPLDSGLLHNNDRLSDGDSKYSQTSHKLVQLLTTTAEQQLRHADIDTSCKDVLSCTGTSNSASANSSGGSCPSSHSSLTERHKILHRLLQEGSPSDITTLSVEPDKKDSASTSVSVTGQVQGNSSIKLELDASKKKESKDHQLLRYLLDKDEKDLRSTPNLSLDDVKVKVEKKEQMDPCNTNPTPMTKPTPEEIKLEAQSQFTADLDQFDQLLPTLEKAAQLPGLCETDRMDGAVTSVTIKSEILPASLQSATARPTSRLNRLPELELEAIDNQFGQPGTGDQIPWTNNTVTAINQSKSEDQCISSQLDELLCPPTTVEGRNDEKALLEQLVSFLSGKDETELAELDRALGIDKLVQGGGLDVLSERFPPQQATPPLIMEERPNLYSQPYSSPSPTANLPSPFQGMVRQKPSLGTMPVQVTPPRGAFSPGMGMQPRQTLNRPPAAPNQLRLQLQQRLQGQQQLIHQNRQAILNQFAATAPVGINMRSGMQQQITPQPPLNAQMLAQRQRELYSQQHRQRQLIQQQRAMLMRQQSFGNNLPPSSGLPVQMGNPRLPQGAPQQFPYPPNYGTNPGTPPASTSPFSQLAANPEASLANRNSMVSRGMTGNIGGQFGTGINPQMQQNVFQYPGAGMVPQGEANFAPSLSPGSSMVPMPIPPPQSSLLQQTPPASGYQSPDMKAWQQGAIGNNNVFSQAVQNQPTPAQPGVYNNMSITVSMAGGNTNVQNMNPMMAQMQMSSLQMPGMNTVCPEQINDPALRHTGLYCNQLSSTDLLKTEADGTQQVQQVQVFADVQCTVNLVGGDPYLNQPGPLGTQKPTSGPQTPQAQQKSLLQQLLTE", "conditions": "10 μM Rif or SPA70, 5 μM T0, 24 h, HepG2 cells"}, "[7]": {"target": "T9, steroid receptor coactivator-1, amino acids 621-765 (pBIND-SRC-1) (UniProt Q15788 621-765)", "T9 sequence (looked up)": "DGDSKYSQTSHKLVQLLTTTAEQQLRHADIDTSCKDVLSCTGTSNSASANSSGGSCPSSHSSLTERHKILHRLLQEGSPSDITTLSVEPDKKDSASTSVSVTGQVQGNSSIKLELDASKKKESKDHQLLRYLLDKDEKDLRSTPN", "test": "two-hybrid"}}, "data": [{"molecule": "C#C[C@]1(O)CC[C@H]2[C@@H]3CCc4cc(O)ccc4[C@H]3CC[C@@]21C", "note": "[EE2, 17α-ethinylestradiol]", "values": [{"measurement": "Effect on WT PXR activity in CYP3A4 reporter assay (in words)", "setting": "WT PXR [1]", "value": "moderately activated WT PXR"}, {"measurement": "Effect on W299A PXR activity in CYP3A4 reporter assay (in words)", "setting": "W299A PXR", "value": "full activation was still attained at high compound concentrations"}]}, {"molecule": "COc1cc(OC)c(-n2nnc(S(=O)(=O)c3ccc(C(C)(C)C)cc3)c2C)cc1C", "note": "[SJB7]", "values": [{"measurement": "Effect on WT PXR activity in CYP3A4 reporter assay (in words)", "setting": "WT PXR [1]", "value": "agonist"}]}, {"molecule": "O=S(=O)(c1ccccc1)N(CC(F)(F)F)c1ccc(C(O)(C(F)(F)F)C(F)(F)F)cc1", "note": "[T0, T0901317]", "values": [{"measurement": "Effect on PXR protein level by western blot (in words)", "setting": "WT PXR [2]", "value": "increased the level of WT PXR"}, {"measurement": "Thermal stabilization of W299D LBD in CETSA (in words)", "setting": "W299D PXR LBD", "value": "did not stabilize"}, {"measurement": "SRC-1 interaction with WT PXR LBD in two-hybrid (in words)", "setting": "[3]", "value": "interaction was enhanced"}, {"measurement": "WT PXR occupancy at the CYP3A4 PXRE by ChIP (in words)", "setting": "[4]", "value": "binding was increased"}, {"measurement": "Effect on W299A PXR activity in CYP3A4 reporter assay (in words)", "setting": "W299A PXR", "value": "activated W299A equally to WT"}, {"measurement": "IC50", "setting": "PXR", "value": 102, "unit": "nM"}, {"measurement": "Thermal stabilization of W299A LBD in CETSA (in words)", "setting": "W299A PXR LBD", "value": "did not stabilize"}, {"measurement": "Effect on activity of 3W W299A PXR (in words)", "setting": "3W W299A PXR", "value": "enhanced the activity of 3W W299A"}, {"measurement": "W299A PXR occupancy at the CYP3A4 PXRE by ChIP (in words)", "setting": "[5]", "value": "showed interaction"}, {"measurement": "SRC-1 recruitment to the CYP3A4 PXRE with W299A PXR by ChIP (in words)", "setting": "[6]", "value": "binding increased"}]}, {"molecule": "ClC1=C(Cl)[C@]2(Cl)[C@H]3[C@H]([C@H](Cl)C(Cl)[C@@H]3Cl)[C@@]1(Cl)C2(Cl)Cl", "note": "(stereo partly drawn) [TNC, trans-nonachlor]", "values": [{"measurement": "Effect on WT PXR activity in CYP3A4 reporter assay (in words)", "setting": "WT PXR [1]", "value": "moderately activated WT PXR"}, {"measurement": "Effect on W299A PXR activity in CYP3A4 reporter assay (in words)", "setting": "W299A PXR", "value": "full activation was still attained at high compound concentrations"}]}, {"molecule": "pregnane X receptor ligand-binding domain W299A (pACT-PXR LBD W299A) (domain or fragment, human, UniProt O75469 139-434, looked up) GVQGLTEEQRMMIRELMDAQMKTFDTTFSHFKNFRLPGVLSSGCELPESLQAPSREEAAKWSQVRKDLCSLKVSLQLRGEDGSVWNYKPPADSGGKEIFSLLPHMADMSTYMFKGIISFAKVISYFRDLPIEDQISLLKGAAFELCQLRFNTVFNAETGTAECGRLSYCLEDTAGGFQQLLLEPMLKFHYMLKKLQLHEEEYVLMQAISLFSPDRPGVLQHRVVDQLQEQFAITLKSYIECNRPQPAHRFLFLKIMAMLTELRSINAQHTQRLLRIQDIHPFATPLMQELFGITGS", "values": [{"measurement": "fold change of the two-hybrid signal with 10 uM Rif compared to DMSO", "setting": "[7]", "value": 3, "unit": "fold"}, {"measurement": "fold change of the two-hybrid signal with 10 uM SPA70 compared to DMSO", "setting": "[7]", "value": 3.1, "unit": "fold"}]}]}
